Series [1] concerns the target T1, Mitogen-activated protein kinase kinase kinase kinase 1 (Homo sapiens, UniProt Q92918). Description: Inhibition of N-terminal DYKDDDDK recombinant human HPK1 (1 to 346 residues) expressed in Sf21 insect cells preincubated for 10 min followed by fluorescein PKC and ATP addition and measured after 90 min by Envision2104 Multilabel Reader analysis.
Target sequence in this assay (Q92918 whole entry, the tested form may be a part): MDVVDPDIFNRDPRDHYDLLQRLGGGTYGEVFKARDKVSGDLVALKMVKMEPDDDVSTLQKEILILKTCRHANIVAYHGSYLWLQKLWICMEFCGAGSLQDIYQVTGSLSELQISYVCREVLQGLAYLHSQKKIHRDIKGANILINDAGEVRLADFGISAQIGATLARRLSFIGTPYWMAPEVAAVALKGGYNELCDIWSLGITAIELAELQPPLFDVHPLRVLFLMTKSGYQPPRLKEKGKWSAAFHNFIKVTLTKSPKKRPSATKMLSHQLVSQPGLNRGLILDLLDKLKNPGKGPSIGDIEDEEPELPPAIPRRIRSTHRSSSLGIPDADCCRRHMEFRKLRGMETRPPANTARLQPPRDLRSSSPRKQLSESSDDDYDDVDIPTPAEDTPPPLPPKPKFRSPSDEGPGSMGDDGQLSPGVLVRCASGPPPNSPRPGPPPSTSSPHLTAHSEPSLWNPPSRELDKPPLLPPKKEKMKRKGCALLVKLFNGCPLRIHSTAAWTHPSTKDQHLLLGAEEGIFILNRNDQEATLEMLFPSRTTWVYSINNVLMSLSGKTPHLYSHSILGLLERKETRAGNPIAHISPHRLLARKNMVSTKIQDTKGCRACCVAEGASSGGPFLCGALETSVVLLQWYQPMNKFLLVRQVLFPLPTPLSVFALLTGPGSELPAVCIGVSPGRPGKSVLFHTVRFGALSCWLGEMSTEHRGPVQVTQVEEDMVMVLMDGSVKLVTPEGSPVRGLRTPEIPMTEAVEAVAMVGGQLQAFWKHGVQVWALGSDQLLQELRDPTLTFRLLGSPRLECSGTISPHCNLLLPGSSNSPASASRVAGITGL
For series [2], the target named is T1, Mitogen-activated protein kinase kinase kinase kinase 1. Description: Inhibition of HPK1 in human T cells assessed as increase in IL-2 secretion measured after 24 hrs by ELISA method. Format: cell-based, T-cell. The settings on record: for Activity: T-cell.
Series [3] shares this target. Briefly: Inhibition of HPK1 in human Jurkat cells assessed as reduction in SLP76 phosphorylation pretreated for 1 hr followed by anti-CD3 addition and measured after 15 min by ELISA method. Format: cell-based. On the technique in general: In an ELISA, binding on a coated surface is turned into a signal by an enzyme label.
Target sequence in this assay (Q92918 whole entry, the tested form may be a part): as above
Series [4] is described as follows: Cmax in overnight fasted mouse at 10 mg/kg, po. Format: ADME, organism-based. The conditions noted are these: in vivo.
Series [5] in a line: Plasma clearance in overnight fasted mouse at 1 mg/kg, iv. Format: ADME, organism-based.
A short description of series [6]: Oral bioavailability in in overnight fasted mouse at 10 mg/kg. Format: ADME, organism-based. The settings on record: in vivo.
A short description of series [7]: Half life in overnight fasted mouse at 1 mg/kg, iv. Format: ADME, organism-based. The conditions noted are these: in vivo.
A short description of series [8]: AUC (0 to 24 hrs) in overnight fasted mouse at 10 mg/kg, po. Format: ADME, organism-based. The conditions noted are these: in vivo.
Series [9] can be described thus: Plasma Clearance in overnight fasted rat at 1 mg/kg, iv. Format: ADME, organism-based.
Series [10] in a line: Cmax in overnight fasted rat at 10 mg/kg, po. Format: ADME, organism-based. The conditions noted are these: in vivo.
Series [11] is described as follows: AUC (0 to 24 hrs) in overnight fasted rat at 10 mg/kg, po. Format: ADME, organism-based. The settings on record: in vivo.
The nature of series [12]: Half life in overnight fasted rat at 1 mg/kg, iv. Format: ADME, organism-based. The conditions noted are these: in vivo.
Series [13] has as its target T1, Mitogen-activated protein kinase kinase kinase kinase 1. Briefly: Inhibition of HPK1 in human T cells assessed as increase in IL-2 secretion at 333 nM incubated for 2 hrs and measured after 24 hrs by ELISA method. Format: cell-based. The settings on record: T-cell.
Target sequence in this assay (Q92918 whole entry, looked up, the tested form may be a part): as the sequence (Q92918 whole entry, the tested form may be a part) above
The target of series [14] is Voltage-gated inwardly rectifying potassium channel KCNH2 (Homo sapiens, UniProt Q12809). Briefly: Inhibition of HERG expressed in HEK293 cells at -80mV holding potential incubated for 24 to 48 hrs by whole-cell patch clamp method.

We go through twelve molecules from ChEMBL document CHEMBL6092149, “Discovery of 1(2H)-phthalazinone and 1(2H)-isoquinolinone derivatives as potent hematopoietic progenitor kinase 1 (HPK1) inhibitors” (Eur J Med Chem, 2024).

Active and inactive are the calls of the source. The calls are words filed in the database; no cut-off is given here.

Sequence of Voltage-gated inwardly rectifying potassium channel KCNH2 (Q12809 whole entry): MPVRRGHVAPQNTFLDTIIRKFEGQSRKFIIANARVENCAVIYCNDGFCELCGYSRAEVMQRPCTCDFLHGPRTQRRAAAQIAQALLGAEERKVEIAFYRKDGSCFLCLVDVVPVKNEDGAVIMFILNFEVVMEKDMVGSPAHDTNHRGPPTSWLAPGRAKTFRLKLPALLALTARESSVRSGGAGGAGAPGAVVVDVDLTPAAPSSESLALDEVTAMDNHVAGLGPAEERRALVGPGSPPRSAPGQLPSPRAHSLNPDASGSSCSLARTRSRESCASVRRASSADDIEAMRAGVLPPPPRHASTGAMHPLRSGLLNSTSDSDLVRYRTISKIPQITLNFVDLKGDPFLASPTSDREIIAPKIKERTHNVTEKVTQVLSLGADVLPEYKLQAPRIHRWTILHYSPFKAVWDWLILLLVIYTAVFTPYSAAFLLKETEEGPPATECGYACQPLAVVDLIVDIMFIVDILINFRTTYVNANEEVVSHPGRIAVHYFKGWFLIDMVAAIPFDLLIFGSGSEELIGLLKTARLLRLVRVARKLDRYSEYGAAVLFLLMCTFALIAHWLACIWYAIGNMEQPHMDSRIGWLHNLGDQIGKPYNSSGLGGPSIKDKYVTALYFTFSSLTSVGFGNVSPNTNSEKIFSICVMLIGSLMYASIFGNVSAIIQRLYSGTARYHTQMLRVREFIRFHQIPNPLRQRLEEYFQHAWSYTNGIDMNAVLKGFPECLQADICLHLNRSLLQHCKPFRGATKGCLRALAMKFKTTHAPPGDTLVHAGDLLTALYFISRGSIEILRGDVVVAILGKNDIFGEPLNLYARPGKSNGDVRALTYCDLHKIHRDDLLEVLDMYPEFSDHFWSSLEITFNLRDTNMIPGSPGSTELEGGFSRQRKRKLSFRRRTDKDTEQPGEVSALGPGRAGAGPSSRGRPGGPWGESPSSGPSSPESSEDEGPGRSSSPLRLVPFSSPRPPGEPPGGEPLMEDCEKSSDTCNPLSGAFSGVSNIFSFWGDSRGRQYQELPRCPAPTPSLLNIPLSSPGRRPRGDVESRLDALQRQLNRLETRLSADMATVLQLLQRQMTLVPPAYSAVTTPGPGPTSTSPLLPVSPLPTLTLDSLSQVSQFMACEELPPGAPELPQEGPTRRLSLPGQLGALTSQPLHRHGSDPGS

`CN(C)Cc1nc(Nc2ccc(-c3cnc4cc(F)ccn34)c3c(F)c[nH]c(=O)c23)ccc1C1CCOCC1`: the IC50 in [1] was over 1000 nM.

For `O=c1[nH]ncc2c(-c3cnc4cc(F)ccn34)ccc(Nc3ccc(C4CCOCC4)c(CN4CCC(O)C4)n3)c12` (stereo not drawn), in series [2], the EC50 stood at 223 nM and the Activity result was “Dose-dependent-effect”. The IC50 in series [1] was found to be 39.1 nM.

In the case of `O=c1[nH]ncc2c(-c3cnc4cc(F)ccn34)ccc(Nc3ccc(C4CCOCC4)c(CN4CC[C@@H](F)C4)n3)c12`, in series [2], the EC50 was found to be 373 nM and the Activity entry is “Dose-dependent-effect”. Besides, the EC50 in series [3] was 55 nM. In series [1], the IC50 turned out to be 34 nM.

For `Cc1cc2c(-c3cnc4cc(F)ccn34)ccc(Nc3ccc(C4CCOCC4)c(CN(C)C)n3)c2c(=O)[nH]1`, the IC50 in series [1] was over 1000 nM.

Regarding `CN(C)Cc1nc(Nc2ccc(-c3cnc4cc(F)ccn34)c3c2C(=O)NCC3)ccc1C1CCOCC1`, the IC50 in [1] came out at 525 nM.

Regarding `CN(C)Cc1nc(Nc2ncc(-c3cnc4cc(F)ccn34)c3cn[nH]c(=O)c23)ccc1C1CCOCC1`, the IC50 in [1] was 539 nM.

In series [4], `CN(C)Cc1nc(Nc2ccc(-c3cnc4cc(F)ccn34)c3cc[nH]c(=O)c23)ccc1C1CCOCC1` showed a Cmax of 308 ng/mL. Besides, the EC50 in series [2] turned out to be 220 nM; in [3], 76 nM. The Activity entry in [2] is “Dose-dependent-effect”. Further, the clearance in series [5] was 159 mL/min/kg. Moreover, the bioavailability in series [6] turned out to be 86%. In addition, the half-life in [7] is 24 min. In addition, the IC50 in series [1] came out at 20 nM. The AUC(0-t) in series [8] amounted to 892 ng·h/mL.

`CN(C)Cc1nc(Nc2ccc(-c3cnc4cc(F)ccn34)c3cn[nH]c(=O)c23)ccc1C1CCOCC1`: the Cmax in series [4] worked out at 725 ng/mL. In series [2], the EC50 is 123 nM and the Activity result is “Dose-dependent-effect”. In series [5], this molecule yielded a clearance of 263 mL/min/kg. In addition, the bioavailability in [6] was found to be 77%. In [7], this molecule gave a half-life of 12 min. Further, the EC50 in series [3] worked out at 19.2 nM. Besides, the IC50 in series [1] is 6.9 nM. Further, in [8], the AUC(0-t) worked out at 477 ng·h/mL.

`COC1CCN(Cc2nc(Nc3ccc(-c4cnc5cc(F)ccn45)c4cn[nH]c(=O)c34)ccc2C2CCOCC2)C1` (stereo not drawn): in series [2], the EC50 worked out at 254 nM and the Activity result was “Dose-dependent-effect”. In [3], the EC50 was found to be 32 nM. In addition, the IC50 in series [1] turned out to be 24.4 nM.

On to `O=C(NCc1nc(Nc2ccc(-c3cnc4cc(F)ccn34)c3cn[nH]c(=O)c23)ccc1C1CCOCC1)NC1CC1`, for which, in [1], the IC50 was over 1000 nM.

In the case of `CN(C)Cc1nc(Nc2ccc(-c3cnc4cc(F)ccn34)c3c2C(=O)NC3)ccc1C1CCOCC1`, the clearance worked out at 230 mL/min/kg in series [9] and 269 mL/min/kg in series [5]. The Cmax came out at 74 ng/mL in series [10] and 282 ng/mL in series [4]. Also, the AUC(0-t) in [11] is 312 ng·h/mL; in [8] it was 1350 ng·h/mL. The half-life was 84 min in series [12] and 30 min in series [7]. The result in series [13] was Active. In series [14], this molecule displayed an IC50 of 2850 nM.

For the molecule `O=c1[nH]ncc2c(-c3cnc4cc(F)ccn34)ccc(Nc3ccc(C4CCOCC4)c(CN4CC[C@H](F)C4)n3)c12`, the peak level in series [4] (Cmax) was 484 ng/mL. In [2], the EC50 is 187 nM and the Activity entry is “Dose-dependent-effect”. In [5], this molecule gave a clearance of 104 mL/min/kg. The molecule also had a bioavailability in series [6] of 31%. This molecule also had a half-life in series [7] of 30 min. Further, in [3], the EC50 is 14 nM. Besides, in series [1], the IC50 stood at 5.4 nM. In series [8], this molecule came in with an AUC(0-t) of 506 ng·h/mL.

Usually IC50 stands for the point on the concentration scale where inhibition reaches its midpoint. In general, EC50 refers to the concentration needed to bring the measured effect to its halfway point. By Cmax is commonly meant the peak of the concentration-time curve. A word on the clearance: it is the volume of plasma or blood freed of the substance per unit of time. High values mean efficient removal, low ones inefficient removal. What is called bioavailability is the share of a dose that reaches the circulation, judged against a reference dose that is usually intravenous. By half-life is commonly meant the time in which the quantity being followed falls by half. High values mean slow loss, low ones fast loss. By AUC(0-t) is commonly meant the area under the concentration-time curve up to a stated or last time point.
